From US20070129433A1, “Diphenylamine derivatives” (priority 2003, published 2007)

Assays:
[1] = tested on: Human LDL; assay: Antioxidant effect: inhibition of copper-induced oxidation of human LDL (fluorescence); format: biochemical; settings: human LDL 120 μg/ml + CuCl2, 37° C., fluorescence difference between 2 h and 24 h readings; from three concentrations
Protocol: Human LDLs placed in aqueous solution in the presence of cupric ions, become spontaneously oxidized on their protein component, apolipoprotein-B. This oxidation makes the particle fluorescent, which is exploited to measure a pharmacological effect.
The reactions and measurements are performed in black 96-well plates. 10 μl of a solution of the test product dissolved in dimethyl sulfoxide are first mixed with 170 μl of a solution of human LDL at a concentration of 120 μg/ml and 20 μl of 100 μM CuCl2. After stirring, the mixture is incubated for 2 hours at 37° C., and a first fluorescence reading is taken (excitation at 360 nm, reading at 460 nm). The mixture is then incubated for a further 22 hours, to take a second reading under the same conditions. The difference is proportionately smaller the greater the anti-oxidant power of the test product. Probucol is used as reference product at a concentration of 10 μM.
The concentrations that inhibit 50% (IC50) of the oxidation are prepared from three concentrations of the test product. They are given in Table I below for some of the compounds given as examples below.

[2] = tested on: fatty Zucker rats; assay: Hypotriglyceridaemiant activity in fatty Zucker rats; format: in vivo, rat; settings: 9-week-old male Zucker rats, 300 mg/kg/day p.o. for eight days, plasma after fasting four hours
Protocol: The compound of Example 2 was tested on fatty Zucker rats (Zucker L. M. et al., 1961, Fatty a new mutation in the rat, J. Hered., 52: 275278). This animal is hyperphagic, obese and hyperinsulinaemic. It develops resistance to insulin, it is hyperlipidaemic, and has a large hypertriglyceridaemia. 9-week-old male Zucker rats were treated for eight days with this compound at a dose of 300 mg/kg/day p.o. After fasting for four hours, a blood sample is taken to recover the plasma. Under these conditions, the compound of Example 2 induces a large reduction in triglycerides, of 55% (p<0.01), and the insulinaemia is down by 59% (p<0.05).

| Structure (SMILES) | IC50 [1] [µM] | reduction in triglycerides ([2]; p<0.01) [%] | insulinaemia down by ([2]; p<0.05) [%] |
| --- | --- | --- | --- |
| COc1ccc(Nc2ccc(CO)cc2)cc1 [Example 8, {4-[(4-Methoxyphenyl)amino]phenyl}methanol] | 5.8 |  |  |
| COc1ccc(Nc2ccc(C#N)cc2)cc1 [Example 6, 4-[(4-Methoxyphenyl)amino]benzonitrile] | 8.5 |  |  |
| COc1ccc(Nc2ccc(C(=O)O)cc2)cc1 [Example 2, 4-[(4-Methoxyphenyl)amino]benzoic acid] | 10.6 | 55 | 59 |

Continued, in another order:

| IC50 [1] [µM] | Structure (SMILES) | reduction in triglycerides ([2]; p<0.01) [%] | insulinaemia down by ([2]; p<0.05) [%] |
| --- | --- | --- | --- |
| 11.1 | COc1ccc(Nc2ccc(CC(=O)O)cc2)cc1 [Example 17] |  |  |
| 9.7 | O=C(O)c1ccc(Nc2ccc([N+](=O)[O-])cc2)cc1 [Example 13] |  |  |
| 18.6 | COc1ccc(Nc2ccc(C(N)=O)cc2)cc1 [Example 42] |  |  |
